Experimental data as given in ChEMBL document CHEMBL1201862, “PubChem BioAssay data set” (2004).
Values joined by “and” are separate entries in the source; they are usually repeats but may differ in a detail not shown here. Equal entries are not always repeated.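 Values below derive from 48-hour exposures of cells grown in 96-well plates, with endpoints linearly interpolated between the two concentrations bracketing the appropriate inhibition level. The concentration for 50% growth inhibition is given as GI50.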 Active and inactive are the calls of the source. No stated cut-off is given here; in the data, active = GI50 up to about 1.1 µM and inactive = higher.

Key:
Assay in all cases: growth of human tumour cells (NCI), 48 h
[1] = system: HOP-92
[2] = system: DLD-1
[3] = system: RXF 393
[4] = system: DMS-273
[5] = system: A498
[6] = system: K562
[7] = system: UO-31
[8] = system: TK-10
[9] = system: LOX IMVI
[10] = system: SK-OV-3
[11] = system: UACC-257
[12] = system: U-251
[13] = system: SF-268
[14] = system: NCI-H226
[15] = system: Malme-3M
[16] = system: NCI-H23
[17] = system: 786-0
[18] = system: OVCAR-4
[19] = system: ACHN
[20] = system: HT-29
[21] = system: HOP-62
[22] = system: SK-MEL-5
[23] = system: LXFL 529
[24] = system: IGROV-1
[25] = system: HCT-116
[26] = system: OVCAR-5
[27] = system: SN12C
[28] = system: NCI-H460
[29] = system: SF-295
[30] = system: NCI-H522
[31] = system: HCT-15
[32] = system: KM12
[33] = system: MOLT-4
[34] = system: KM-20L2
[35] = system: HOP-18
[36] = system: SR
[37] = system: DMS-114
[38] = system: SF-539
[39] = system: HL-60
[40] = system: SK-MEL-28
[41] = system: SW-620
[42] = system: OVCAR-3
[43] = system: EKVX
[44] = system: CCRF-CEM
[45] = system: RPMI-8226
[46] = system: SNB-75
[47] = system: SNB-19
[48] = system: A549
[49] = system: OVCAR-8
[50] = system: UACC-62
[51] = system: HCC 2998
[52] = system: RXF 631
[53] = system: M14
[54] = system: NCI/ADR-RES
[55] = system: SK-MEL-2
[56] = system: M19-MEL
[57] = system: CAKI-1
[58] = system: XF498
[59] = system: SNB-78
[60] = system: COLO 205

N#Cc1c(-c2ccco2)cc(-c2ccc(N)cc2)[nH]c1=O
GI50 [1]: > 100 µM (inactive) | GI50 [2]: > 100 µM (inactive) | GI50 [3]: > 100 µM (inactive) | GI50 [4]: > 100 µM (inactive) | GI50 [5]: > 100 µM (inactive) | GI50 [6]: > 100 µM (inactive) | GI50 [7]: > 100 µM (inactive) | GI50 [8]: > 100 µM (inactive) | GI50 [9]: > 100 µM (inactive) | GI50 [10]: > 100 µM (inactive) | GI50 [11]: > 100 µM (inactive) | GI50 [12]: > 100 µM (inactive) | GI50 [13]: > 100 µM (inactive) | GI50 [14]: > 100 µM (inactive) | GI50 [15]: > 100 µM (inactive) | GI50 [16]: > 100 µM (inactive) | GI50 [17]: > 100 µM (inactive) | GI50 [18]: > 100 µM (inactive) | GI50 [19]: > 100 µM (inactive) | GI50 [20]: > 100 µM (inactive) | GI50 [21]: > 100 µM (inactive) | GI50 [22]: > 100 µM (inactive) | GI50 [23]: > 100 µM (inactive) | GI50 [24]: > 100 µM (inactive) | GI50 [25]: > 100 µM (inactive) | GI50 [26]: > 100 µM (inactive) | GI50 [27]: > 100 µM (inactive) | GI50 [28]: > 100 µM (inactive) | GI50 [29]: > 100 µM (inactive) | GI50 [30]: > 100 µM (inactive) | GI50 [31]: > 100 µM | GI50 [32]: > 100 µM (inactive) | GI50 [33]: > 100 µM (inactive) | GI50 [34]: > 100 µM (inactive) | GI50 [35]: > 100 µM (inactive) | GI50 [36]: > 100 µM (inactive) | GI50 [37]: > 100 µM (inactive) | GI50 [38]: > 100 µM (inactive) | GI50 [39]: > 100 µM (inactive) | GI50 [40]: > 100 µM (inactive) | GI50 [41]: > 100 µM (inactive) | GI50 [42]: > 100 µM (inactive) | GI50 [43]: > 100 µM (inactive) | GI50 [44]: > 100 µM (inactive) | GI50 [45]: > 100 µM (inactive) | GI50 [46]: > 100 µM (inactive) | GI50 [47]: > 100 µM (inactive) | GI50 [48]: > 100 µM (inactive) | GI50 [49]: > 100 µM (inactive) | GI50 [50]: > 100 µM (inactive) | GI50 [51]: > 100 µM (inactive) | GI50 [52]: > 100 µM (inactive) | GI50 [53]: > 100 µM (inactive)

COC1=C(C)C(=O)C2=C(C1=O)C(CO)N1C(C#N)C3CC4C(C1C2N1CCOC41)N3C (configuration not stated)
GI50 [1]: 24.1 nM (active) and < 16.9 nM (active) | GI50 [2]: 0.00706 µM (active) | GI50 [3]: 20.9 nM (active) and 20.6 nM (active) | GI50 [4]: 0.02 µM (active) | GI50 [5]: 0.146 µM (active) | GI50 [54]: 22.6 nM (active) and 31.5 nM (active) | GI50 [9]: 11.6 nM (active) and < 14.1 nM (active) | GI50 [10]: 164 nM (active) and 261 nM (active) | GI50 [55]: 15.8 nM (active) and 19.4 nM (active) | GI50 [11]: 26.2 nM (active) and 27.7 nM (active) | GI50 [13]: 78.5 nM (active) and 85.9 nM (active) | GI50 [14]: 99.3 nM (active) and 57.9 nM (active) | GI50 [16]: 35.2 nM (active) and 39.1 nM (active) | GI50 [17]: 20 nM (active) and 26.8 nM (active) | GI50 [19]: 64.1 nM (active) and 38.8 nM (active) | GI50 [21]: 270 nM (active) and 166 nM (active) | GI50 [22]: 50.7 nM (active) and 29.9 nM (active) | GI50 [24]: 45.1 nM (active) and 32.4 nM (active) | GI50 [26]: 262 nM (active) and 241 nM (active) | GI50 [28]: 90.8 nM (active) and 150 nM (active) | GI50 [29]: 292 nM (active) and 179 nM (active) | GI50 [31]: < 0.01 µM and 0.0144 µM | GI50 [32]: 58.8 nM (active) and 80.7 nM (active) | GI50 [56]: 0.0492 µM (active) | GI50 [33]: 0.0128 µM (active) | GI50 [34]: 0.0617 µM (active) | GI50 [35]: 0.132 µM (active) | GI50 [39]: 0.0133 µM (active) | GI50 [40]: 51.8 nM (active) and 52 nM (active) | GI50 [41]: < 14.6 nM (active) and 16.4 nM (active) | GI50 [43]: 314 nM (active) and 305 nM (active) | GI50 [46]: 20.6 nM (active) and 39.5 nM (active) | GI50 [48]: 354 nM (active) and 321 nM (active) | GI50 [49]: 30.3 nM (active) and 19.3 nM (active) | GI50 [51]: 72.4 nM (active) and 60.3 nM (active) | GI50 [52]: 0.167 µM (active)

O=[N+]([O-])c1ccccc1C1SCc2nc3ccccc3n21 (configuration not stated)
GI50 [1]: 48 µM (inactive) | GI50 [2]: 82 µM (inactive) | GI50 [3]: > 100 µM (inactive) | GI50 [4]: > 100 µM (inactive) | GI50 [5]: 63 µM (inactive) | GI50 [57]: 78.3 µM (inactive) | GI50 [6]: 45.5 µM (inactive) | GI50 [7]: 31.6 µM (inactive) | GI50 [8]: 79.1 µM (inactive) | GI50 [9]: > 100 µM (inactive) | GI50 [10]: > 100 µM (inactive) | GI50 [55]: > 100 µM (inactive) | GI50 [11]: 46.7 µM (inactive) | GI50 [12]: 70.6 µM (inactive) | GI50 [13]: > 100 µM (inactive) | GI50 [15]: 22.1 µM (inactive) | GI50 [16]: 54.1 µM (inactive) | GI50 [17]: > 100 µM (inactive) | GI50 [18]: > 100 µM (inactive) | GI50 [19]: 92.5 µM (inactive) | GI50 [20]: > 100 µM (inactive) | GI50 [21]: 92 µM (inactive) | GI50 [22]: 18.3 µM (inactive) | GI50 [23]: 92.9 µM (inactive) | GI50 [58]: 13.7 µM (inactive) | GI50 [24]: 36.9 µM (inactive) | GI50 [27]: 83.9 µM (inactive) | GI50 [28]: 78.9 µM (inactive) | GI50 [29]: 59.2 µM (inactive) | GI50 [30]: > 100 µM (inactive) | GI50 [32]: > 100 µM (inactive) | GI50 [33]: 44 µM (inactive) | GI50 [35]: > 100 µM (inactive) | GI50 [36]: 85.3 µM (inactive) | GI50 [37]: 66.2 µM (inactive) | GI50 [38]: > 100 µM (inactive) | GI50 [39]: 74.6 µM (inactive) | GI50 [40]: > 100 µM (inactive) | GI50 [41]: > 100 µM (inactive) | GI50 [43]: 75 µM (inactive) | GI50 [44]: 69.5 µM (inactive) | GI50 [47]: > 100 µM (inactive) | GI50 [48]: 52.4 µM (inactive) | GI50 [49]: > 100 µM (inactive) | GI50 [50]: 54 µM (inactive) | GI50 [52]: 93.1 µM (inactive)

O=C(O/N=C1/CCC/C1=C\c1ccccc1)c1ccc(Cl)c(Cl)c1
GI50 [1]: > 100 µM (inactive) | GI50 [2]: > 100 µM (inactive) | GI50 [3]: > 100 µM (inactive) | GI50 [4]: > 100 µM (inactive) | GI50 [5]: > 100 µM (inactive) | GI50 [57]: > 100 µM (inactive) | GI50 [6]: > 100 µM (inactive) | GI50 [7]: > 100 µM (inactive) | GI50 [8]: > 100 µM (inactive) | GI50 [9]: > 100 µM (inactive) | GI50 [10]: > 100 µM (inactive) | GI50 [55]: > 100 µM (inactive) | GI50 [11]: > 100 µM (inactive) | GI50 [12]: > 100 µM (inactive) | GI50 [13]: > 100 µM (inactive) | GI50 [14]: > 100 µM (inactive) | GI50 [15]: > 100 µM (inactive) | GI50 [16]: > 100 µM (inactive) | GI50 [59]: > 100 µM (inactive) | GI50 [17]: > 100 µM (inactive) | GI50 [18]: 35 µM (inactive) | GI50 [19]: > 100 µM (inactive) | GI50 [20]: > 100 µM (inactive) | GI50 [21]: > 100 µM (inactive) | GI50 [22]: > 100 µM (inactive) | GI50 [23]: > 100 µM (inactive) | GI50 [24]: > 100 µM (inactive) | GI50 [25]: > 100 µM (inactive) | GI50 [26]: > 100 µM (inactive) | GI50 [27]: > 100 µM (inactive) | GI50 [28]: > 100 µM (inactive) | GI50 [29]: > 100 µM (inactive) | GI50 [30]: > 100 µM (inactive) | GI50 [31]: > 100 µM | GI50 [32]: > 100 µM (inactive) | GI50 [56]: > 100 µM (inactive) | GI50 [33]: > 100 µM (inactive) | GI50 [34]: > 100 µM (inactive) | GI50 [35]: > 100 µM (inactive) | GI50 [36]: > 100 µM (inactive) | GI50 [37]: > 100 µM (inactive) | GI50 [38]: > 100 µM (inactive) | GI50 [39]: > 100 µM (inactive) | GI50 [40]: > 100 µM (inactive) | GI50 [41]: > 100 µM (inactive) | GI50 [42]: > 100 µM (inactive) | GI50 [43]: > 100 µM (inactive) | GI50 [44]: > 100 µM (inactive) | GI50 [45]: > 100 µM (inactive) | GI50 [46]: > 100 µM (inactive) | GI50 [48]: > 100 µM (inactive) | GI50 [60]: > 100 µM (inactive) | GI50 [49]: > 100 µM (inactive) | GI50 [50]: > 100 µM (inactive) | GI50 [51]: > 100 µM (inactive) | GI50 [52]: > 100 µM (inactive) | GI50 [53]: > 100 µM (inactive)
